# From PMC8741257, “Identification of novel non-toxic and anti-angiogenic α-fluorinated chalcones as potent colchicine binding site inhibitors” (Journal of Enzyme Inhibition and Medicinal Chemistry, 2022)
# Read-outs that look alike come from different tables or passages of the source.
# Key:
# [1] = system: MGC-803 (human gastric cancer cells); assay: Antiproliferative activity (SRB / CCK-8 assay); format: cell-based; conditions: mean ± SD
# Method: (§1) MCF-7, MGC-803, Hela and HepG-2 cell lines were cultured in a base medium (90% DMEM and 10% FBS), A549 and U937 were cultured in a base medium (90% PRMI-1640 and 10% FBS) at 37 °C, 5% CO2 and a saturated humidity atmosphere. All the mediums were supplemented with 10% FBS and 1% […]/streptomycin (all cells were purchased from Shanghai Institutes for Biological Sciences, Chinese Academy of Sciences, Shanghai, China).
# (§2) A549, MGC-803, MCF-7, HepG2 and Hela cells were seeded at the appropriate cell line density (3 × 10^3 to 4 × 10^3 cells/well). The cells were then incubated at 37 °C for 24 h in a humidified 5%CO2 in 96-well plates prior to experiments. After a further 72 h of incubation, cell proliferation was quantified with SRB ([…]) to determine the number of surviving cells. The absorbance at 560 nm was measured by microplate. The experiment was repeated three times, and the data were listed in the form of mean and standard deviation.
# (§3) MGC-803 cells were collected and seeded into 96 well plates at a density of 8000/well. The mediums containing drugs and cell suspension were added into the well. The cells were incubated in 5% CO2 incubator at 37 °C for 72 h. Each well was added 10 µL CCK8 solution, and the incubation time was 3–4 h. The absorbance value at 450 nm was measured by microplate reader. Data are calculated with GraphPad Prism5 software.
# [2] = system: Hela (human cervical cancer cells); assay: Antiproliferative activity (SRB assay); format: cell-based; conditions: mean ± SD, three separated experiments, 72 h
# Method: as §1, §2
# [3] = system: MCF-7 (human breast cancer cells); assay: Antiproliferative activity (SRB assay); format: cell-based; conditions: MCF7, mean ± SD, three separated experiments, 72 h
# Method: as §1, §2
# [4] = system: A549 (human non-small cell lung cancer); assay: Antiproliferative activity (SRB assay); format: cell-based; conditions: mean ± SD, three separated experiments, 72 h
# Method: as §1, §2
# [5] = system: HepG2 (human liver cancer cells); assay: Antiproliferative activity (SRB assay); format: cell-based; conditions: mean ± SD, three separated experiments, 72 h
# Method: as §1, §2
# [6] = system: U937 (human leukaemia cells); assay: Antiproliferative activity (CCK-8 assay); format: cell-based; conditions: U-937, mean ± SD, three separated experiments, 72 h
# Method: as §1, §3
# [7] = system: six human cancer cell lines (MCF-7, MGC-803, HepG2, Hela, A549, U937); assay: Antiproliferative activity, summary over the tested cancer cell lines; format: cell-based
# Method: as §2, §3
# [8] = system: THP-1-derived macrophages; assay: Growth inhibition of normal human cells; format: cell-based; conditions: Macrophage, triplicate, mean ± SD
# Method: (§4) The effect of compound 4c on three types of normal human cell lines including LO2 (human hepatocyte cells), 293 T (human embryonic kidney cell) and THP-1-derived macrophages was then determined.
# [9] = system: LO2 (human hepatocyte cells); assay: Growth inhibition of normal human cells; format: cell-based; conditions: triplicate, mean ± SD
# Method: as §4
# [10] = system: 293 T (human embryonic kidney cell); assay: Growth inhibition of normal human cells; format: cell-based; conditions: HEK-293T, triplicate, mean ± SD
# Method: as §4
# [11] = three separated experiments, 72 h
# [12] = tested cancer cell lines, read-out: IC50, anti-proliferative activity
Compound,"IC50 [1, 11] [µM]",IC50 [2] [µM],IC50 [3] [µM],IC50 [4] [µM],IC50 [5] [µM],IC50 [6] [µM],melting point [°C],"IC50 [7, 12] [µM]","IC50 ([7]; several tested cancer cell lines, range, read-out: IC50, inhibitory effect) [µM]","IC50 ([1]; Table 2, triplicate) [µM]",IC50 [8] [µM],IC50 [9] [µM],IC50 [10] [µM]
"COC(=O)c1ccc2c(/C=C(\F)C(=O)c3cc(OC)c(OC)c(OC)c3)c[nH]c2c1 [4a, Methyl(Z)-3–(2-fluoro-3-oxo-3–(3,4,5-trimethoxyphenyl)prop-1-en-1-yl)-1H-indole-6-carboxylate]",> 5,> 5,> 5,> 5,> 5,> 5,207.3 to 209.1,> 5,,,,,
"COc1cc(C(=O)/C(F)=C/c2c(-c3ccccc3)[nH]c3ccccc23)cc(OC)c1OC [4b, (Z)-2-fluoro-3–(2-phenyl-1H-indol-3-yl)-1–(3,4,5-trimethoxyphenyl)prop-2-en-1-one]",0.202 ± 0.023,0.685 ± 0.002,0.551 ± 0.022,3.635 ± 0.001,0.883 ± 0.041,0.562 ± 0.02,150.7 to 152.4,,,,,,
"COC(=O)c1ccc2[nH]cc(/C=C(\F)C(=O)c3cc(OC)c(OC)c(OC)c3)c2c1 [4d, Methyl(Z)-3–(2-fluoro-3-oxo-3–(3,4,5-trimethoxyphenyl)prop-1-en-1-yl)-1H-indole-5-carboxylate]",> 5,> 5,> 5,> 5,> 5,> 5,80.4 to 81.8,> 5,,,,,
"COc1cc(C(=O)/C(F)=C/c2c(C)[nH]c3ccccc23)cc(OC)c1OC [4e, (Z)-2-fluoro-3–(2-methyl-1H-indol-3-yl)-1–(3,4,5-trimethoxyphenyl)prop-2-en-1-one]",0.072 ± 0.002,0.101 ± 0.031,0.551 ± 0.014,> 5,1.385 ± 0.001,0.123 ± 0.011,204 to 206.4,,,,,,
"COC(=O)c1cccc2[nH]cc(/C=C(\F)C(=O)c3cc(OC)c(OC)c(OC)c3)c12 [4f, Methyl(Z)-3–(2-fluoro-3-oxo-3–(3,4,5-trimethoxyphenyl)prop-1-en-1-yl)-1H-indole-4-carboxylate]",> 5,> 5,> 5,> 5,> 5,> 5,118 to 119,> 5,,,,,
"COc1cc(C(=O)/C(F)=C/c2csc3ccccc23)cc(OC)c1OC [4g, (Z)-3-(benzo[b]thiophen-3-yl)-2-fluoro-1–(3,4,5-trimethoxyphenyl)prop-2-en-1-one]",0.021 ± 0.007,0.072 ± 0.001,0.121 ± 0.012,0.505 ± 0.01,0.199 ± 0.006,0.456 ± 0.013,118 to 119,,,,,,
"COc1cc(C(=O)/C(F)=C/c2cc3ccccc3s2)cc(OC)c1OC [4h, (Z)-3-(benzo[b]thiophen-2-yl)-2-fluoro-1–(3,4,5-trimethoxyphenyl)prop-2-en-1-one]",1.897 ± 0.001,2.493 ± 0.002,2.101 ± 0.003,2.57 ± 0.159,5.976 ± 0.004,0.606 ± 0.026,122.2 to 123.6,,,,,,
"COc1cc(C(=O)/C(F)=C/c2sc3ccccc3c2C)cc(OC)c1OC [4i, (Z)-2-fluoro-3–(3-methylbenzo[b]thiophen-2-yl)-1–(3,4,5-trimethoxyphenyl)prop-2-en-1-one]",> 5,> 5,> 5,> 5,> 5,> 5,140.5 to 143.4,,,,,,
"COc1cc(C(=O)/C(F)=C/c2nc3ccccc3[nH]2)cc(OC)c1OC [4j, (Z)-3-(1H-benzo[d]imidazol-2-yl)-2-fluoro-1–(3,4,5-trimethoxyphenyl)prop-2-en-1-one]",> 5,> 5,> 5,> 5,> 5,> 5,178.9 to 180.9,,,,,,
"COc1cc(C(=O)/C(F)=C/c2coc3ccccc23)cc(OC)c1OC [4t, (Z)-3-(benzofuran-3-yl)-2-fluoro-1–(3,4,5-trimethoxyphenyl)prop-2-en-1-one]",,0.203 ± 0.006,1.293 ± 0.007,1.02 ± 0.064,1.063 ± 0.008,0.125 ± 0.002,103.7 to 104.8,,,,,,
"COc1ccc(/C=C\c2cc(OC)c(OC)c(OC)c2)cc1O [CA-4, Combretastatin A4, reference compound]",0.002 ± 0.001,0.008 ± 0.001,,0.005 ± 0.001,0.007 ± 0.001,0.0003,,,,0.002 ± 0.001,0.007 ± 0.001,0.005 ± 0.001,0.012 ± 0.002

# Continued, in another order:
"IC50 [1, 11] [µM]",IC50 [2] [µM],IC50 [3] [µM],IC50 [4] [µM],IC50 [5] [µM],IC50 [6] [µM],melting point [°C],"IC50 [7, 12] [µM]","IC50 ([7]; several tested cancer cell lines, range, read-out: IC50, inhibitory effect) [µM]",Compound,"IC50 ([1]; Table 2, triplicate) [µM]",IC50 [8] [µM],IC50 [9] [µM],IC50 [10] [µM]
0.166 ± 0.004,0.565 ± 0.012,0.441 ± 0.001,> 5,3.298 ± 0.007,0.806 ± 0.024,148.1 to 149.1,,,"COc1cc(C(=O)/C(F)=C/c2cccc3c2OCO3)cc(OC)c1OC [4k, (Z)-3-(benzo[d][1,3]dioxol-4-yl)-2-fluoro-1–(3,4,5-trimethoxyphenyl)prop-2-en-1-one]",,,,
> 5,> 5,> 5,> 5,> 5,> 5,156.3 to 157.8,,,"COc1cc(C(=O)/C(F)=C/c2cc3c(cc2Br)OCO3)cc(OC)c1OC [4l, (Z)-3–(6-bromobenzo[d][1,3]dioxol-5-yl)-2-fluoro-1–(3,4,5-trimethoxyphenyl)prop-2-en-1-one]",,,,
0.362 ± 0.123,0.925 ± 0.007,1.002 ± 0.007,> 5,1.407 ± 0.014,0.71 ± 0.027,94.1 to 94.2,,,"COc1cc(C(=O)/C(F)=C/c2ccc3occc3c2)cc(OC)c1OC [4m, (Z)-3-(benzofuran-5-yl)-2-fluoro-1–(3,4,5-trimethoxyphenyl)prop-2-en-1-one]",,,,
0.043 ± 0.001,0.042 ± 0.001,0.128 ± 0.004,0.364 ± 0.003,0.116 ± 0.001,0.031 ± 0.001,100.8 to 103.7,,0.031 to 0.364,"COc1cc(C(=O)/C(F)=C/c2ccc3c(c2)CCO3)cc(OC)c1OC [4n, (Z)-3–(2,3-dihydrobenzofuran-5-yl)-2-fluoro-1–(3,4,5-trimethoxyphenyl)prop-2-en-1-one]",,,,
3.301 ± 0.026,> 5,4.408 ± 0.043,> 5,> 5,> 5,115.5 to 116.6,,,"COc1cc(C(=O)/C(F)=C/c2cc3ccccc3o2)cc(OC)c1OC [4o, (Z)-3-(benzofuran-2-yl)-2-fluoro-1–(3,4,5-trimethoxyphenyl)prop-2-en-1-one]",,,,
> 5,> 5,> 5,> 5,> 5,> 5,117.4 to 118.8,,,"COc1cc(C(=O)/C(F)=C/c2oc3ccccc3c2C)cc(OC)c1OC [4p, (Z)-2-fluoro-3–(3-methylbenzofuran-2-yl)-1–(3,4,5-trimethoxyphenyl)prop-2-en-1-one]",,,,
> 5,> 5,> 5,> 5,> 5,> 5,114 to 116.4,,,"COc1cc(C(=O)/C(F)=C/c2ccc3oc4ccccc4c3c2)cc(OC)c1OC [4q, (Z)-3-(dibenzo[b,d]furan-2-yl)-2-fluoro-1–(3,4,5-trimethoxyphenyl)prop-2-en-1-one]",,,,
> 5,> 5,> 5,> 5,> 5,> 5,174.7 to 176.6,,,"COc1cc(C(=O)/C(F)=C/c2cc3c(cc2[N+](=O)[O-])OCO3)cc(OC)c1OC [4r, (Z)-2-fluoro-3–(6-nitrobenzo[d][1,3]dioxol-5-yl)-1–(3,4,5-trimethoxyphenyl)prop-2-en-1-one]",,,,
> 5,> 5,> 5,> 5,> 5,> 5,142.6 to 143.8,,,"COc1cc(C(=O)/C(F)=C/c2ccc3sc4ccccc4c3c2)cc(OC)c1OC [4s, (Z)-3-(dibenzo[b, d]thiophen-2-yl)-2-fluoro-1–(3,4,5-trimethoxyphenyl)prop-2-en-1-one]",,,,
